Measured values reported in patent US7462600B2, “Macrolides” (Pfizer Inc, priority 2004, dated 2008).
≈ marks a conversion by molar mass, not a printed value. Read-outs that look alike come from different tables or passages of the source.

How the values were obtained:
Assay type in all cases: cell-based
[1] = system: Streptococcus pneumoniae 1016; test: MIC, microtiter broth dilution (NCCLS M100-S14), S. pneumoniae 1016 (susceptible)
Summary of the method: (§1)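 Steps: dissolve compound in DMSO to 40 mg/ml stock; dilute in broth across microtiter trays; inoculate strains; record MIC per NCCLS M100-S14.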

[2] = system: Streptococcus pneumoniae 1095; settings: microtiter broth dilution
Summary of the method: as §1

[3] = system: Streptococcus pneumoniae 1175; settings: microtiter broth dilution
Summary of the method: as §1

[4] = system: Streptococcus pyogenes 1079; test: MIC, microtiter broth dilution (NCCLS M100-S14), S. pyogenes 1079 (ermB)
Summary of the method: as §1

[5] = system: Haemophilus influenzae 1218; test: MIC, microtiter broth dilution (NCCLS M100-S14), H. influenzae 1218 (susceptible)
Summary of the method: as §1

[6] = S. pneumoniae 1016 (susceptible)
[7] = H. influenzae 1218 (susceptible)

Compound | MIC S. pneumo. 1016 ([1]; Streptococcus pneumoniae 1016) | MIC S. pneumo. 1095 ([2]; Streptococcus pneumoniae 1095) | MIC S. pneumo. 1175 ([3]; Streptococcus pneumoniae 1175) | MIC S. pyogenes 1079 ([4]; Streptococcus pyogenes 1079) | MIC H. influenzae 1218 ([5]; Haemophilus influenzae 1218) | MIC S. pneumo. 1016 [1, 6] | MIC S. pneumo. 1095 ([2]; S. pneumoniae 1095 (ermB)) | MIC S. pneumo. 1175 ([3]; S. pneumoniae 1175 (mefA)) | MIC S. pyogenes 1079 ([4]; S. pyogenes 1079 (ermB)) | MIC H. influenzae 1218 [5, 7]
CCC1OC(=O)C(C)C(=O)C(C)C(OC2OC(C)CC(N(C)C)C2O)C(C)(OC)CC(C)C(=O)C(C)C2N(C3CN(S(=O)(=O)c4ccc(-n5cncn5)cc4)C3)C(=O)OC12C (stereo not drawn) [Example 3.52, 3-descladinosyl-11,12-dideoxy-6-O-methyl-3-oxo-12,11-(oxycarbonyl-(1-(4-(1H-1,2,4-triazol-1-yl)benzenesulfonyl)-azetidin-3-yl)-imino)-erythromycin A] | <0.06 µg/mL | 0.12 µg/mL (≈ 0.137 µM) | 0.12 µg/mL (≈ 0.137 µM) | 4 µg/mL (≈ 4.57 µM) | 2 µg/mL (≈ 2.29 µM) |  |  |  |  | 
CCC1OC(=O)C(C)C(=O)C(C)C(OC2OC(C)CC(N(C)C)C2O)C(C)(OC)CC(C)C(=O)C(C)C2N(C3CN(C(=O)Nc4ccc5ccccc5c4)C3)C(=O)OC12C (stereo not drawn) [Example 2.04] | <0.06 µg/mL | 8 µg/mL (≈ 9.56 µM) | <0.06 µg/mL | 32 µg/mL (≈ 38.2 µM) | 8 µg/mL (≈ 9.56 µM) |  |  |  |  | 
CCCC(c1ccnc2ccccc12)N1CC(N2C(=O)OC3(C)C(CC)OC(=O)C(C)C(=O)C(C)C(OC4OC(C)CC(N(C)C)C4O)C(C)(OC)CC(C)C(=O)C(C)C23)C1 (stereo not drawn) [Example 1.65, 3-descladinosyl-11,12-dideoxy-6-O-methyl-3-oxo-12,11-(oxycarbonyl-(1-(1-(quinolin4-yl)-butyl)-azetidin-3-yl)-imino)-erythromycin A] | <0.06 µg/mL | <0.06 µg/mL | <0.06 µg/mL | 8 µg/mL (≈ 9.4 µM) | 1 µg/mL (≈ 1.17 µM) |  |  |  |  | 
CCC1OC(=O)C(C)C(=O)C(C)C(OC2OC(C)CC(N(C)C)C2O)C(C)(OC)CC(C)C(=O)C(C)C2N(C3CN(Cc4ccnc5[nH]c(C6CC6)nc45)C3)C(=O)OC12C (stereo not drawn) [Example 1.89, 3-descladinosyl-11,12-dideoxy-6-O-methyl-3-oxo-12,11-(oxycarbonyl-(1-(2-cyclopropyl-3H-imidazo[4,5-b]pyridine-7-methyl)-azetidin-3-yl)-imino)-erythromycin A] | <0.063 µg/mL | 0.5 µg/mL (≈ 0.596 µM) | <0.063 µg/mL | 1 µg/mL (≈ 1.19 µM) | 4 µg/mL (≈ 4.77 µM) |  |  |  |  | 
CCC1OC(=O)C(C)(F)C(=O)C(C)C(OC2OC(C)CC(N(C)C)C2O)C(C)(OC)CC(C)C(=O)C(C)C2N(C3CN(C(C)c4ccnc5ncccc45)C3)C(=O)OC12C (stereo not drawn) [Example 1.32, 3-descladinosyl-11,12-dideoxy-2-fluoro-6-O-methyl-3-oxo-12,11-(oxycarbonyl-(1-(1R-(1,8-naphthyridin-4-yl)-ethyl)-azetidin-3-yl)-imino)-erythromycin A] | <0.06 µg/mL | <0.06 µg/mL | 0.25 µg/mL (≈ 0.297 µM) | 0.12 µg/mL (≈ 0.143 µM) | 0.5 µg/mL (≈ 0.594 µM) |  |  |  |  | 
CC[C@H]1OC(=O)[C@H](C)[C@@H](OC(=O)N2CCCC2)[C@H](C)[C@@H](O[C@@H]2O[C@H](C)C[C@H](N(C)C)[C@H]2O)[C@](C)(OC)C[C@@H](C)C(=O)[C@H](C)[C@H]2N(CC3CN(Cc4nccc5ccccc45)C3)C(=O)O[C@]12C [Example 5.09, 2-R^2: (isoquinolin-1-yl)methyl; R^#: pyrrolidin-1-yl] | <0.06 µg/mL | 1 µg/mL (≈ 1.08 µM) | <0.06 µg/mL | 64 µg/mL (≈ 69.4 µM) | 2 µg/mL (≈ 2.17 µM) |  |  |  |  | 
CCC1OC(=O)C(C)C(=O)C(C)C(OC2OC(C)CC(N(C)C)C2O)C(C)(OC)CC(C)C(=O)C(C)C2N(C3CN(S(=O)(=O)c4ccc5[nH]ncc5c4)C3)C(=O)OC12C (stereo not drawn) [Example 3.87, 3-descladinosyl-11,12-dideoxy-6-O-methyl-3-oxo-12,11-(oxycarbonyl-(1-(1H-indazole-5-sulfonyl)-azetidin-3-yl)-imino)-erythromycin A] | <0.06 µg/mL | <0.06 µg/mL | <0.06 µg/mL | 0.19 µg/mL (≈ 0.224 µM) | 0.19 µg/mL (≈ 0.224 µM) |  |  |  |  | 
CCC1OC(=O)C(C)C(=O)C(C)C(OC2OC(C)CC(N(C)C)C2O)C(C)(OC)CC(C)C(=O)C(C)C2N(CC3CCN(Cc4c[nH]nn4)C3)C(=O)OC12C (stereo not drawn) [13.07] |  |  |  |  |  | <0.06 µg/mL | >64.00 µg/mL | 4 µg/mL (≈ 5.15 µM) | >64.00 µg/mL | 2 µg/mL (≈ 2.57 µM)
CCC1OC(=O)C(C)C(=O)C(C)C(OC2OC(C)CC(N(C)C)C2O)C(C)(OC)CC(C)C(=O)C(C)C2N(CC3CCCN3Cc3ccnc4ccccc34)C(=O)OC12C (stereo not drawn) [10.04] |  |  |  |  |  | <0.06 µg/mL | <0.06 µg/mL | <0.06 µg/mL | 16 µg/mL (≈ 19.1 µM) | 0.5 µg/mL (≈ 0.597 µM)
CC[C@H]1OC(=O)[C@H](C)C(=O)[C@H](C)[C@@H](O[C@@H]2O[C@H](C)C[C@H](N(C)C)[C@H]2O)[C@](C)(OC)C[C@@H](C)C(=O)[C@H](C)[C@H]2N(CC3(C)CN(Cc4cccc5ncccc45)C3)C(=O)O[C@]12C [6.02] | <0.06 µg/mL | <0.06 µg/mL | 0.25 µg/mL (≈ 0.299 µM) | 32 µg/mL (≈ 38.2 µM) | 2 µg/mL (≈ 2.39 µM) |  |  |  |  | 
CCC1OC(=O)C(C)C(=O)C(C)C(OC2OC(C)CC(N(C)C)C2O)C(C)(OC)CC(C)C(=O)C(C)C2N(C3CN(Cc4ccncc4Cl)C3)C(=O)OC12C (stereo not drawn) [Example 1.79, 3-descladinosyl-11,12-dideoxy-6-O-methyl-3-oxo-12,11-(oxycarbonyl-(1-(3-chloropyridine-4-methyl)-azetidin-3-yl)-imino)-erythromycin A] | <0.063 µg/mL | <0.063 µg/mL | <0.063 µg/mL | 4 µg/mL (≈ 5.04 µM) | 1 µg/mL (≈ 1.26 µM) |  |  |  |  | 
CCC1OC(=O)C(C)C(=O)C(C)C(OC2OC(C)CC(N(C)C)C2O)C(C)(OC)CC(C)C(=O)C(C)C2N(C3CN(S(=O)(=O)c4cnn(-c5ccccn5)c4)C3)C(=O)OC12C (stereo not drawn) [Example 3.21, 1-(pyridin-2-yl)-1H-pyrazole-4-sulfonyl] | <0.06 µg/mL | <0.06 µg/mL | <0.06 µg/mL | >64.00 µg/mL | 1 µg/mL (≈ 1.14 µM) |  |  |  |  | 
CC[C@H]1OC(=O)[C@H](C)[C@@H](OC(=O)N2CCCC2)[C@H](C)[C@@H](O[C@@H]2O[C@H](C)C[C@H](N(C)C)[C@H]2O)[C@](C)(OC)C[C@@H](C)C(=O)[C@H](C)[C@H]2N(CC3CN(Cc4nc5ccccc5s4)C3)C(=O)O[C@]12C [Example 5.14, 2-R^2: (benzo[d]thiazol-2-yl)methyl; R^#: pyrrolidin-1-yl] | <0.06 µg/mL | 4 µg/mL (≈ 4.31 µM) | <0.06 µg/mL | 32 µg/mL (≈ 34.5 µM) | 4 µg/mL (≈ 4.31 µM) |  |  |  |  | 
CCC1OC(=O)C(C)C(=O)C(C)C(OC2OC(C)CC(N(C)C)C2O)C(C)(OC)CC(C)C(=O)C(C)C2N(C3CN(C(=O)Nc4cc(-c5cncc(C)c5)n[nH]4)C3)C(=O)OC12C (stereo not drawn) [Example 2.08] | <0.06 µg/mL | 1 µg/mL (≈ 1.15 µM) | 16 µg/mL (≈ 18.4 µM) | 32 µg/mL (≈ 36.9 µM) | 8 µg/mL (≈ 9.22 µM) |  |  |  |  | 
CCC1OC(=O)C(C)C(=O)C(C)C(OC2OC(C)CC(N(C)C)C2O)C(C)(OC)CC(C)C(=O)C(C)C2N(C3CN(Cc4ccc5nccnc5c4)C3)C(=O)OC12C (stereo not drawn) [Example 1.28, 3-descladinosyl-11,12-dideoxy-6-O-methyl-3-oxo-12,11-(oxycarbonyl-(1-((quinoxalin-6-yl)-methyl)-azetidin-3-yl)-imino)-erythromycin A] | <0.06 µg/mL | <0.06 µg/mL | 4 µg/mL (≈ 4.94 µM) | 8 µg/mL (≈ 9.88 µM) | 0.5 µg/mL (≈ 0.617 µM) |  |  |  |  | 
CCC1OC(=O)C(C)C(=O)C(C)C(OC2OC(C)CC(N(C)C)C2O)C(C)(OC)CC(C)C(=O)C(C)C2N(C3CN(S(=O)(=O)c4ccc5sc(C)nc5c4)C3)C(=O)OC12C (stereo not drawn) [Example 3.90, 3-descladinosyl-11,12-dideoxy-6-O-methyl-3-oxo-12,11-(oxycarbonyl-(1-(2-methylbenzo[d]thiazole-5-sulfonyl)-azetidin-3-yl)-imino)-erythromycin A] | <0.06 µg/mL | <0.06 µg/mL | <0.06 µg/mL | 8 µg/mL (≈ 9.1 µM) | 0.25 µg/mL (≈ 0.284 µM) |  |  |  |  | 
CCC1OC(=O)C(C)C(=O)C(C)C(OC2OC(C)CC(N(C)C)C2O)C(C)(OC)CC(C)C(=O)C(C)C2N(CC3(O)CCN(Cc4c[nH]c5ncccc45)CC3)C(=O)OC12C (stereo not drawn) [Example 14.01, (1H-pyrrolo[2,3-b]pyridin-3-yl)methyl] |  |  |  |  |  | <0.06 µg/mL | 32 µg/mL (≈ 37.4 µM) | 1 µg/mL (≈ 1.17 µM) | >64.00 µg/mL | 4 µg/mL (≈ 4.67 µM)
CCC1OC(=O)C(C)C(=O)C(C)C(OC2OC(C)CC(N(C)C)C2O)C(C)(OC)CC(C)C(=O)C(C)C2N(C3CN(S(=O)(=O)c4cccc(C#N)c4)C3)C(=O)OC12C (stereo not drawn) [Example 3.10, 3-descladinosyl-11,12-dideoxy-6-O-methyl-3-oxo-12,11-(oxycarbonyl-(1-(3-cyanobenzenesulfonyl)-azetidin-3-yl)-imino)-erythromycin A] | <0.06 µg/mL | <0.06 µg/mL | <0.06 µg/mL | 4 µg/mL (≈ 4.8 µM) | 0.25 µg/mL (≈ 0.3 µM) |  |  |  |  | 
